Data reported in PubChem BioAssay (NCI).
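Growth conditions: 96-well plates. Treatment: test compound, 48 hours, 5 concentrations. Analysis: linear interpolation between bracketing concentrations; unreached endpoints set to highest concentration. Here, GI50 denotes the concentration required for 50% inhibition of growth. Definition used: TGI = concentration required for complete inhibition of growth.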

Columns and labels:
Assay in all cases: DTP human tumour cell line panel, 48 h
786-0 renal = tested on: 786-0 renal
HCC-2998 colon = tested on: HCC-2998 colon
MCF7 breast = tested on: MCF7 breast
MOLT-4 leukemia = tested on: MOLT-4 leukemia
RPMI-8226 leukemia = tested on: RPMI-8226 leukemia
SK-OV-3 ovarian = tested on: SK-OV-3 ovarian
TK-10 renal = tested on: TK-10 renal
HOP-62 NSCLC = tested on: HOP-62 NSCLC
K-562 leukemia = tested on: K-562 leukemia
RXF 393 renal = tested on: RXF 393 renal

Structure (SMILES)	TGI (786-0 renal) [µM]	TGI (HCC-2998 colon) [µM]	TGI (MCF7 breast) [µM]	TGI (MOLT-4 leukemia) [µM]	TGI (RPMI-8226 leukemia) [µM]	TGI (SK-OV-3 ovarian) [µM]	TGI (TK-10 renal) [µM]	TGI (HOP-62 NSCLC) [µM]	TGI (K-562 leukemia) [µM]	TGI (RXF 393 renal) [µM]	GI50 (HCC-2998 colon) [µM]	GI50 (HOP-62 NSCLC) [µM]	GI50 (K-562 leukemia) [µM]	GI50 (MCF7 breast) [µM]	GI50 (MOLT-4 leukemia) [µM]	GI50 (RPMI-8226 leukemia) [µM]	GI50 (SK-OV-3 ovarian) [µM]	GI50 (TK-10 renal) [µM]	GI50 (786-0 renal) [µM]	GI50 (RXF 393 renal) [µM]
COc1ccc2c(c1OC)C(C(Cl)(Cl)Cl)N1CCc3cc4c(cc3C1=C2)OCO4 (stereo unspecified)	55.5	29.5	> 100	80.9	11.3	85.9	> 100													
N/N=C(\c1nc2ccc(Cl)cc2[nH]c1=O)C(O)c1ccc(Cl)c(Cl)c1 (stereo unspecified)	> 100	> 100		> 100	> 100	> 100	> 100	> 100	> 100	> 100										
O=S(=O)(N=NC=C1c2ccccc2N(O)c2ccccc21)c1ccc(Cl)cc1	> 100	> 100		> 100	> 100	> 100	> 100	> 100	> 100											
Cc1ccc(S(=O)(=O)c2ccc(C)cc2[N+](=O)[O-])cc1	> 100	> 100		> 100	> 100	> 100	> 100	> 100	> 100	> 100										
COC(=O)/C(C#N)=C(\N)C(Cl)(Cl)Cl	14.4	9.41		3.2	6.75	5.3	7.55	39	4.51	3.77										
CC(=O)NNc1nc(C)c(C(=O)/C=C/c2ccc(Cl)cc2)s1	> 100	> 100		> 100	> 100	> 100	> 100	> 100	> 100	> 100										
CCOC(=O)C1=C(C)N(NC(N)=O)C2(N)N(NC(N)=O)C(C)=C(C(=O)OCC)C12C(=O)OCC (stereo unspecified)	> 100	> 100		> 100	> 100	> 100		> 100	> 100	> 100										
COc1cc(C(=O)O[C@H](C(=O)NCCN(C)CCNC(=O)[C@@H](OC(=O)c2cc(OC)cc3c(C)cccc23)[C@]2(C)CO2)[C@]2(C)CO2)c2cccc(C)c2c1	0.179	0.771	0.327	0.153	5.85	3.6	1.57	7.85	6.85		< 0.0241	0.893	< 0.0389	< 0.01	< 0.01	0.246	0.575	0.348		
CN(C)CCCC1(c2ccc(F)cc2)OCc2cc(-c3cc4ccccc4s3)ccc21 (stereo unspecified)	3.37	3.11	3.47	3.08		3.04	3.13	3	3.3	2.86	1.67	1.6	1.68	1.75	1.52		1.66	1.7	1.76	1.42
COC1CCC(OC)C(C2(C3CC(OC)CCC3OC)OC(=O)c3ccccc32)C1 (stereo unspecified)	> 100	> 100		89.3	> 100	> 100	> 100	> 100	> 100	> 100										
C=C1C(=O)O[C@H]2[C@H]1CC/C(Cn1cc(-c3ccc(F)cc3)nn1)=C\CC[C@@]1(C)O[C@@H]21	2.36	3.3		2	4.92	21.4	2.53	12.1	4.84	2.13	1.74	3.04	0.948		0.387	1.41	9.78	1.24	1.06	0.874
NCCNC(=O)c1cccc2cc3ccccc3nc12	> 68.4	21.2		1.94	> 100	> 39	21.2	5.02	6.16	10.2										
N#CC(C#N)=Cc1ccc(CP(=O)(O)O)cc1	> 100	> 100		> 100	> 100	> 100	> 100	> 100	> 100											
CC(C)C(=O)c1c(C(F)(F)F)n([O-])c2cc(F)c(F)cc2[n+]1=O	0.97	1.37			12.3	2.85	2.67	0.602		1.19	0.326	0.0985			0.0933	0.0666	1.04	0.976	0.444	0.456
Nc1ccc(COC(O)CN2CCCCC2)cc1[N+](=O)[O-] (stereo unspecified)	> 100	> 100	> 100	> 100	> 100		> 100		> 100	> 100										
CCCN(CCC)C(=O)c1nc(N)nc(-c2ccc(OC)cc2)c1-c1ccc(OC)cc1	> 100			> 100	> 100	> 100	> 100		> 100											
COC1=CC(c2ccc[nH]2)=N/C1=C\c1[nH]c(C)c(CC(=O)OCc2ccccc2)c1C	1.19		2.85	1.27		2.77	2.11	2.27		2.07		0.374		0.397	0.23		0.457	0.351	0.299	0.43
CCCCc1c2cnccc2c(CCCC)c2c1[nH]c1ccccc12	24.1	> 100		23.7	17.6	42.2	34.6	18.8	19.9	24.9										
CCOC(=O)C12C(C(=O)OC)=C(C)N(NC(=O)Nc3ccccc3)C1(N)N(NC(=O)Nc1ccccc1)C(C)=C2C(=O)OC (stereo unspecified)	> 100	86.8		46.7	74	> 100	> 100	49	> 73.5	74.3										
CC(C(=O)c1ccccc1)C1(O)C(=O)Nc2ccc(Cl)cc21 (stereo unspecified)	> 100	> 100			> 100	> 100	> 100	> 100		> 100										
COc1ccc(C(=O)CC2=Nc3nnc(CCCCCCCc4nnc5n4C(=O)C(CC(=O)c4ccc(OC)cc4)=N5)n3C2=O)cc1	> 100	> 100		> 100	> 100	> 100	> 100	> 100	> 100	> 100										

Structure (SMILES)	TGI (786-0 renal) [µM]	TGI (HCC-2998 colon) [µM]	TGI (MCF7 breast) [µM]	TGI (MOLT-4 leukemia) [µM]	TGI (RPMI-8226 leukemia) [µM]	TGI (SK-OV-3 ovarian) [µM]	TGI (TK-10 renal) [µM]	TGI (HOP-62 NSCLC) [µM]	TGI (K-562 leukemia) [µM]	TGI (RXF 393 renal) [µM]	GI50 (HCC-2998 colon) [µM]	GI50 (HOP-62 NSCLC) [µM]	GI50 (K-562 leukemia) [µM]	GI50 (MCF7 breast) [µM]	GI50 (MOLT-4 leukemia) [µM]	GI50 (RPMI-8226 leukemia) [µM]	GI50 (SK-OV-3 ovarian) [µM]	GI50 (TK-10 renal) [µM]	GI50 (786-0 renal) [µM]	GI50 (RXF 393 renal) [µM]
COc1cc2c(cc1OC)C1Cc3ccc(OC)c(OC)c3C[N+]1([O-])CC2 (stereo unspecified)	> 100	> 100		> 100	> 100		> 100	> 100	> 100											
C1CN(P2(N3CC3)=NP(N3CC3)(N3CC3)=NP(N3CC3)(N3CC3)=N2)CCO1 (stereo unspecified)	> 100	> 100		> 100	> 100	> 100	> 100	> 83.4	> 100	> 100										
O=C1CNC(=O)c2[nH]cnc2N1	> 100	> 100		> 100	> 100	> 100	> 100		> 100	> 100										
CC1CC(C)C2OC2(C)C[C@H](C)C(=O)NC(C)C(=O)N(C)[C@H](Cc2c(Br)[nH]c3ccccc23)C(=O)N[C@@H](c2ccc(O)cc2)CC(=O)O1 (stereo partly specified)	19.1	0.505		57.3	5.43	3.04	5.44	1.4	> 77.4	4.81										
COc1ccc2c(c1)NC1(O)c3ccccc3C(=O)C21O (stereo unspecified)	> 100			> 100	> 100	> 100	> 100	> 100	> 100											
COC(=O)C1CC(OC(C)=O)C=C2C(=O)CCC21 (stereo unspecified)	51	> 100		40	57.7	69.9	77.5	61	29.3	29.8										
CC(C)(C)N/N=C(\C(=O)Nc1nc(=S)[nH][nH]1)C1C(=O)Nc2ccccc2S1=O (stereo unspecified)	> 100	> 100		> 100	> 100	> 100	> 100	> 100	> 100	> 100										
NC(=O)c1cccc(OCC(O)CO)c1 (stereo unspecified)	> 100	> 100	> 100	> 100		> 100	> 100	> 100	> 100											
COc1cc(NS(C)(=O)=O)ccc1NCc1c2ccccc2nc2ccccc12	> 100	> 100		35	71.1	> 100	> 100		> 100	57.5										
Cc1nc(N)nc(N)c1CCCc1ccccc1	> 100	39.2		> 100	> 100	> 100	> 100	56.8	> 100											
O=C(Nc1ccccc1-c1nn(CN2CCNCC2)c(=S)n(CN2CCNCC2)c1=O)C(F)(F)F	35.1	33.4		> 100		51.4	61.1	46.6	59	30.3										
Cc1cc(C)c(C(=O)O)c(SSc2cc(C)cc(C)c2C(=O)O)c1	> 100			> 100		> 100	> 100	> 100	> 100	> 100										
C=CCC1(C(=O)OC(C)(C)C)C(OC)=C(C(=O)OC(C)(C)C)C2C1C(C(=O)OC(C)(C)C)=C(OC)C2(CC=C)C(=O)OC(C)(C)C (stereo unspecified)	> 100	> 100		> 100	> 100	> 100	> 100		> 100	> 100										
O=C(Nc1ccc(F)cc1)Nc1ccc(Br)c(C(F)(F)F)c1	8.17	7.73	10.3	5.53	4.96	6.27	7.43		11.5	8.28	2.38		2.13	2.29	1.95	1.03	2.16	2.33	2.42	2.66
CC1=NOC(=O)/C1=C/c1ccc([N+](=O)[O-])cc1	> 100	> 100		> 100		> 100	> 100	> 100	> 100	> 100										
CC(=O)NC(CSC1=C2NC(=O)\C=C/C=C/C=C\C(C)C(O)CC(=O)/C(C)=C\CC(O)/C=C/C(C)C(O)C(C)C=C(C)C(=O)c3c(O)c(C)cc(c3C1=O)C2=O)C(=O)O (stereo unspecified)	> 100		> 100	> 100		> 100	> 100	> 100	> 100											
Cc1cccc(C)c1N1C(=O)C(=O)C(c2nc3ccccc3s2)/C(=N/NC(=O)c2ccccc2O)C1=O (stereo unspecified)	> 66	> 73.1		> 100	> 69.2	> 100	> 100	> 100	> 57	17.2										
C=C1C(=O)O[C@H]2[C@H]1CC/C(COC(=O)OC/C1=C/CC[C@@]3(C)O[C@H]3[C@H]3OC(=O)[C@@H](CN(C)C)[C@@H]3CC1)=C\CC[C@@]1(C)O[C@@H]21	2.79	8.2		3.75	1.94	25.4	2.57	26.5		1.35	2.96	12.2			0.874	0.372	12.8	1.18	1.31	0.306
C/C(CC(=O)Nc1ccccc1C)=N/NS(=O)(=O)c1ccc(C)cc1	> 100	> 100		> 100	> 100	> 100	> 100	> 100	> 100	> 100										
CCOc1ccc(NCC2CC/C(=C\c3ccccc3OC)C2=O)cc1 (stereo unspecified)	8.3	25.8		20.9	3.91	31.1	26.7	> 57.8	> 27.5	21.4										
